Source: patent publication US6984645B2, “Dual inhibitors of adipocyte fatty acid binding protein and keratinocyte fatty acid binding protein” (Bristol-Myers Squibb Company, priority 2001, dated 2006)
Structures can show the parent of a compound that is named as a salt.

Row | SMILES | melting point
1 | O=C(O)c1cccc(OCc2ccccc2Cl)c1OCc1ccc[n+]([O-])c1 | 177 to 179 °C
2 | CO/N=C(/C(=O)O)c1cccc(OCc2ccccc2Cl)c1OCc1ccccc1Cl (single isomer, unassigned) [Example 340, (E or Z)-2,3-Bis[(2-chlorophenyl)methoxy]-α-(methoxyimino)benzeneacetic acid] | 140 to 141 °C
3 | CO/N=C(/C(=O)O)c1cccc(OCc2ccccc2Cl)c1OCc1ccccc1Cl (single isomer, unassigned) [Example 341, (E or Z)-2,3-Bis[(2-chlorophenyl)methoxy]-α-(methoxyimino)benzeneacetic acid] | 97 to 99 °C
4 | O=C(O)/C=C/c1cccc(OCc2ccccc2Cl)c1OCc1ccccc1Cl [Example 4, 2-(E)-3-[2,3-Bis[(2-chlorophenyl)methoxy]phenyl]-2-propenoic acid] | 187 to 189 °C
5 | O=C(O)Cc1cccc(OCc2ccccc2Cl)c1OCc1ccccc1Cl [Example 5, 2,3-Bis[(2-chlorophenyl)methoxy]benzeneacetic acid] | 105 to 107 °C
6 | O=C(O)C(Cc1cccc(OCc2ccccc2Cl)c1OCc1ccccc1Cl)C(=O)O [Example 7, [[2,3-Bis[(2-chlorophenyl)methoxy]phenyl]methyl]propanedioic acid] | 148 to 150 °C (dec.)
7 | O=C(O)c1cccc(COc2ccccc2Cl)c1COc1ccccc1Cl [Example 9, 2,3-Bis[(2-chlorophenoxy)methyl]benzoic acid] | 172 to 174 °C
8 | O=C(O)c1cccc(COc2ccccc2Cl)c1OCc1ccccc1Cl [Example 10, 3-[(2-Chlorophenoxy)methyl]-2-[(2-chlorophenyl)methoxy]benzoic acid] | 172 to 174 °C
9 | O=C(O)C(F)c1cccc(OCc2ccccc2Cl)c1OCc1ccccc1Cl (stereo not drawn) [Example 24, 2,3-Bis[(2-chlorophenyl)methoxy]-α-fluorobenzeneacetic acid] | 92 to 94 °C
10 | O=C(O)C(=O)c1cccc(OCc2ccccc2Cl)c1OCc1ccccc1Cl [Example 26, 2,3-Bis[(2-chlorophenyl)methoxy]-α-oxobenzeneacetic acid] | 116 to 118 °C
11 | O=C(O)C(F)(F)c1cccc(OCc2ccccc2Cl)c1OCc1ccccc1Cl [Example 27, 2,3-Bis[(2-chlorophenyl)methoxy]-α,α-difluorobenzeneacetic acid] | 113 to 115 °C
12 | O=C(O)C(O)c1cccc(OCc2ccccc2Cl)c1OCc1ccncc1 (stereo not drawn) [Example 344, 3-[(2-Chlorophenyl)methoxy]-α-hydroxy-2-(4-pyridinylmethoxy)benzeneacetic acid] | 181 to 183 °C
13 | O=C(O)c1cccc(OCc2cc(Cl)cc(Cl)c2)c1OCc1cc(Cl)cc(Cl)c1 [Example 345, 2,3-Bis[(3,5-dichlorophenyl)methoxy]benzoic acid] | 219 to 220 °C
14 | O=C(O)c1cccc(OCc2ccc(Cl)cc2Cl)c1OCc1ccc(Cl)cc1Cl [Example 346, 2,3-Bis[(2,4-dichlorophenyl)methoxy]benzoic acid] | 168 to 169 °C
15 | O=C(O)c1cccc(OCc2ccccc2Cl)c1OCc1ccccc1Cl [Example 347, 2,3-Bis[(2-chlorophenyl)methoxy]benzoic acid] | 156 to 157 °C
16 | O=C(O)c1cccc(OCc2cccc(Cl)c2)c1OCc1cccc(Cl)c1 [Example 348, 2,3-Bis[(3-chlorophenyl)methoxy]benzoic acid] | 126 to 127 °C
17 | O=C(O)c1cccc(OCc2ccc(Cl)cc2)c1OCc1ccc(Cl)cc1 [Example 349, 2,3-Bis[(4-chlorophenyl)methoxy]benzoic acid] | 174 to 175 °C
18 | O=C(O)c1cccc(OCc2cc(C(F)(F)F)cc(C(F)(F)F)c2)c1OCc1cc(C(F)(F)F)cc(C(F)(F)F)c1 [Example 350, 2,3-Bis[[3,5-bis(trifluoromethyl)phenyl]methoxy]benzoic acid] | 156 to 158 °C
19 | Cc1ccc(C)c(COc2cccc(C(=O)O)c2OCc2cc(C)ccc2C)c1 [Example 351, 2,3-Bis[(2,5-dimethylphenyl)methoxy]benzoic acid] | 114 to 116 °C
20 | Cc1cc(C)cc(COc2cccc(C(=O)O)c2OCc2cc(C)cc(C)c2)c1 [Example 352] | 117 to 118 °C
21 | O=C(O)c1cccc(OCc2ccccc2)c1OCc1ccc(Cl)cc1Cl [Example 353, 2-[(2,4-Dichlorophenyl)methoxy]-3-(phenylmethoxy)benzoic acid] | 140 to 142 °C
22 | O=C(O)c1cccc(OCc2ccc(Cl)cc2Cl)c1OCc1ccccc1 [Example 354, 3-[(2,4-Dichlorophenyl)methoxy]-2-(phenylmethoxy)benzoic acid] | 151 to 153 °C
23 | O=C(O)c1cc(Br)cc(OCc2ccccc2Cl)c1OCc1ccccc1Cl [Example 355, 5-Bromo-2,3-bis[(2-chlorophenyl)methoxy]benzoic acid] | 186 to 187 °C
24 | O=C(O)c1cc(Br)cc(OCc2ccccc2)c1OCc1ccccc1 [Example 356, 5-Bromo-2,3-bis(phenylmethoxy)benzoic acid] | 151 to 153 °C
25 | Cc1cccc(COc2c(OCc3ccccc3Cl)cccc2C(=O)O)c1 [Example 357, 3-[(2-Chlorophenyl)methoxy]-2-[(3-methylphenyl)methoxy]benzoic acid] | 107 to 109 °C
26 | O=C(O)c1cccc(OCc2ccccc2Cl)c1OCc1cccc(F)c1 [Example 358, 3-[(2-Chlorophenyl)methoxy]-2-[(3-fluorophenyl)methoxy]benzoic acid] | 152 to 154 °C
27 | O=C(O)c1cccc(OCc2ccccc2Cl)c1OCc1cccc(C(F)(F)F)c1 [Example 359] | 128 to 129 °C
28 | O=C(O)c1cccc(OCc2ccccc2Cl)c1OCc1ccc(OCc2ccccc2)cc1 [Example 360, 3-[(2-Chlorophenyl)methoxy]-2-[[4-(phenylmethoxy)phenyl]methoxy]benzoic acid] | 107 to 109 °C
29 | Cc1cc(C)cc(COc2c(OCc3ccccc3Cl)cccc2C(=O)O)c1 [Example 361, 3-[(2-Chlorophenyl)methoxy]-2-[(3,5-dimethylphenyl)methoxy]benzoic acid] | 122 to 123 °C
30 | COc1ccccc1COc1c(OCc2ccccc2Cl)cccc1C(=O)O [Example 362, 3-[(2-Chlorophenyl)methoxy]-2-[(2-methoxyphenyl)methoxy]benzoic acid] | 110 to 112 °C

The next lines start with the values.

Row | melting point | SMILES
31 | 197 to 201 °C | O=C(O)c1cccc(OCc2ccccc2Cl)c1OCc1nc2ccccc2[nH]1 (as salt: hydrochloride) [Example 371, 2-(1H-Benzimidazol-2-ylmethoxy)-3-[(2-chlorophenyl)methoxyl]benzoic acid, monohydrochloride]
32 | 168 to 170 °C | O=C(O)c1cccc(OCc2ccccc2Cl)c1OCc1ccccn1 [Example 363]
33 | 157 to 159 °C | O=C(O)c1cccc(OCc2ccccc2Cl)c1OCc1ccncc1 [Example 364]
34 | 181 to 182 °C | O=C(O)c1cccc(OCc2ccccc2Cl)c1OCc1cccnc1 [Example 365]
35 | 183 to 184 °C | O=C(O)c1cccc(OCc2ccccc2Cl)c1OCc1cccnc1Cl [Example 366, 3-[(2-Chlorophenyl)methoxy]-2-[(2-chloro-3-pyridinyl)methoxy)benzoic acid]
36 | 189 to 191 °C | O=C(O)c1cccc(OCc2ccccc2Cl)c1OCc1cccc[n+]1[O-] [Example 367, 3-[(2-Chlorophenyl)methoxy]-2-[(1-oxido-2-pyridinyl)methoxy]benzoic acid]
37 | 186 to 188 °C | O=C(O)c1cccc(OCc2ccccc2Cl)c1OCc1cc[n+]([O-])cc1 [Example 369, 3-[(2-Chlorophenyl)methoxy]-2-[(1-oxido-4-pyridinyl)methoxy]benzoic acid]
38 | 145 to 148 °C | O=C(O)c1cccc(OCc2ccccc2Cl)c1OCc1ccc[n+]([O-])c1Cl [Example 370, 3-[(2-Chlorophenyl)methoxy]-2-[(2-chloro-1-oxido-3-pyridinyl)methoxy]benzoic acid]
39 | 179 to 182 °C | Cn1c(COc2c(OCc3ccccc3Cl)cccc2C(=O)O)nc2ccccc21 [Example 372]
40 | 156 to 158 °C | O=C(O)c1c(Br)ccc(OCc2ccccc2Cl)c1OCc1ccccc1Cl [Example 373, 6-Bromo-2,3-bis[(2-chlorophenyl)methoxy]benzoic acid]
41 | 164 to 166 °C | O=C(O)c1c(Br)ccc(OCc2ccccc2)c1OCc1ccccc1 [Example 374, 6-Bromo-2,3-bis(phenylmethoxy)benzoic acid]
42 | 167 to 168 °C | O=C(Nc1c(OCc2ccccc2)cccc1C(=O)O)c1ccccc1 [Example 375, 2-(Benzoylamino)-3-(phenylmethoxy)benzoic acid]
43 | 208 to 210 °C | O=C(Nc1c(OCc2ccccc2)cccc1C(=O)O)c1ccc(Cl)cc1Cl [Example 381, 2-[(2,4-Dichlorobenzoyl)amino]-3-(phenylmethoxy)benzoic acid]
44 | 202 to 204 °C | O=C(Nc1c(OCc2ccccc2)cccc1C(=O)O)c1cc(Cl)cc(Cl)c1 [Example 382, 2-[(3,5-Dichlorobenzoyl)amino]-3-(phenylmethoxy)benzoic acid]
45 | 145 to 147 °C | O=C(Nc1c(OCc2c(Cl)cccc2Cl)cccc1C(=O)O)c1ccccc1 [Example 383]
46 | 187 to 189 °C | O=C(Nc1c(OCc2cc(Cl)ccc2Cl)cccc1C(=O)O)c1ccccc1 [Example 384]
47 | 182 to 184 °C | O=C(Nc1c(OCc2ccc(Cl)cc2Cl)cccc1C(=O)O)c1ccccc1 [Example 387, 2-(Benzoylamino)-3-[(2,4-dichlorophenyl)methoxy]benzoic acid]
48 | 182 to 183 °C | O=C(Nc1cccc(C(=O)O)c1OCc1ccccc1Cl)c1ccccc1Cl [Example 392, 3-[(2-Chlorobenzoyl)amino]-2-[(2-chlorophenyl)methoxy]benzoic acid]
